Tests used:
Format in all cases: in vivo, BALB/c mice
[1] = tested on: anti-OVA-specific IgE antibody; assay: Allergy inducing activity test: anti-OVA-specific IgE antibody in serum of OVA-immunized mice (DS mouse IgE ELISA (OVA) kit); details: for anti-OVA-specific IgE antibody production: after secondary immunization, dorsal-subcutaneous; for allergy inducing activity as compared to Addavax: conclusion from IgE after secondary immunization, compound in 5% αCD-added saline
Experimental: 8-Week-old female BALB/c mice were divided into groups (N=6), and each group was primarily immunized by dorsal-subcutaneous administration of (1) ovalbumin (OVA) (5 μg) dissolved in saline as an antigen (OVA single administration group), (2) OVA 5 μg and Addavax™ (mixed with saline at 1:1) dissolved in saline (Addavax™ administration group) as positive control adjuvant, (3) OVA 5 μg and SZ137 0.256 μmol dissolved or dispersed in 5% α-cyclodextrin (hereinafter to be simply referred to as αCD)-added saline (SZ137 administration group), (4) OVA (5 μg) and SZ138 (0.256 μmol) dissolved or dispersed in 5% αCD-added saline (SZ138 administration group), (5) OVA (5 μg) and SZ142 (0.256 μmol) dissolved or dispersed in 5% αCD-added saline (SZ142 administration group), (6) OVA (5 μg) and SZ144 (0.256 μmol) dissolved or dispersed in 5% αCD-added saline (SZ144 administration group), (7) OVA (5 μg) and SZ145 (0.256 μmol) dissolved or dispersed in 5% αCD-added saline (SZ145 administration group), (8) OVA (5 μg) and SZ146 (0.256 μmol) dissolved or dispersed in 5% αCD-added saline (SZ146 administration group), (9) OVA (5 μg) and SZ147 (0.256 μmol) dissolved or dispersed in 5% αCD-added saline (SZ147 administration group), (10) OVA (5 μg) and SZ148 (0.256 μmol) dissolved or dispersed in 5% αCD-added saline (SZ148 administration group), each per mouse. Two week later, the secondary immunization was carried out by dorsal-subcutaneous administration of solutions or dispersions similar to those of the above-mentioned (1)-(10) again. Two weeks from the secondary immunization, the whole blood was extracted under anesthesia, and the obtained serum sample was measured for anti-OVA-specific IgG1 subclass antibody, anti-OVA-specific IgG2a subclass antibody, and anti-OVA-specific IgE antibody.
The measurement method of the anti-OVA-specific IgE antibody in Experimental Example 1 and the following Experimental Examples 2-5, 8-10 is as follows.
DS mouse IgE ELISA (OVA) kit manufactured by DS Pharma Biomedical Co., Ltd. was used. The protocol is briefly shown below.
The serum sample and a standard reagent for drawing an analytical curve are diluted with a buffer and, after stirring, left standing at room temperature for 10 min. The sample and the standard solution are added to a plate bound with an IgE capture antibody in advance and, after stirring, the mixture is left standing at room temperature for 60 min. The mixture is washed three times with wash, HRP-labeled OVA is added, and the mixture is left standing at room temperature for 30 min. The mixture is washed three times with wash, a substrate solution is added, and the mixture is left standing in dark at room temperature for 30 min. A reaction quenching liquid is added, the mixture is stirred, and the absorbance (OD Value=450 nm) is immediately measured.
The standard used is one attached to the kit, the standard curve is drawn from the measured OD Value, and the concentration is calculated. […]

[2] = tested on: anti-OVA-specific IgG1 and IgG2a subclass antibody / anti-OVA-specific IgE antibody; assay: Effective Index: index for adjuvant enhancing antibody production and not inducing allergy (IgG1 or IgG2a / IgE, relative to Addavax = 1.0)
Experimental: The serum samples obtained in Experimental Example 1 were evaluated for utilizability as an adjuvant to cause enhancement of antibody production by each compound and not induce allergy based on the following index (Effective Index). Whether each compound can be used as an adjuvant to cause enhancement of antibody production and not induce allergy was also evaluated in the same manner in the following Experimental Examples 2-10.
It is a problem that Addavax™ potentiates antigen-specific antibody production but induces allergy. Therefore, the index for adjuvant not inducing allergy (Effective Index) was defined as follows, and an index of each administration group in Experimental Examples 1-10 was calculated. That is, a value obtained by dividing mean of the concentrations of anti-OVA-specific IgG1 subclass antibody and anti-OVA-specific IgG2a subclass antibody of each group by mean of anti-OVA-specific IgE antibody concentration of each group was relatively compared with a value obtained by dividing mean of the concentrations of anti-OVA-specific IgG1 subclass antibody and anti-OVA-specific IgG2a subclass antibody of Addavax™ administration group by mean of anti-OVA-specific IgE antibody concentration of Addavax™ administration group as 1.0.

[3] = tested on: anti-OVA-specific IgE antibody; assay: Allergy inducing activity test: anti-OVA-specific IgE antibody in serum of OVA-immunized mice (DS mouse IgE ELISA (OVA) kit); details: for anti-OVA-specific IgE antibody production: Experimental Example 4: after secondary immunization, compound 0.256 μmol dissolved in saline (no αCD)
[4] = OVA 5 μg + compound 0.256 μmol in 5% αCD-added saline (Addavax mixed with saline at 1:1), compared to OVA single administration group
[5] = OVA 5 μg + compound 0.256 μmol in 5% αCD-added saline, compared to Addavax administration group
[6] = after secondary immunization, compound in 5% αCD-added saline, IgG1/IgE and IgG2a/IgE production amounts relative to Addavax administration group (1.0)

SMILES	anti-OVA-specific IgE antibody production [1, 4]	anti-OVA-specific IgE antibody production [1, 5]	allergy inducing activity as compared to Addavax [1]	also measured
CCCCCCCCCCCCCCCC(=O)N[C@@H](CCCNC(=N)N)C(=O)NCCCCCCCCCCCC.Cl [SZ111, N-[(1S)-1-(dodecylcarbamoyl)-4-guanidino-butyl]hexadecanamide hydrochloride]	did not increase significantly	lower	may have a lower allergy inducing activity	Effective Index ([2]; Experimental Example 4: after secondary immunization, compound dissolved in saline, IgG1/IgE and IgG2a/IgE relative to Addavax administration group (1.0)): > 1.0; Effective Index [2, 6]: > 1.0; anti-OVA-specific IgE antibody production ([3]; compared to Addavax administration group): lower; anti-OVA-specific IgE antibody production ([3]; compared to OVA single administration group): significantly increased; allergy inducing activity as compared to Addavax ([3]; Experimental Example 4: conclusion from IgE after secondary immunization, compound dissolved in saline): may have a lower allergy inducing activity
CCCCCCCCCCCCCCCCCCCCCC(=O)N[C@@H](CCCNC(=N)N)C(=O)NCCCCCCCCCCCC.Cl [SZ138, N-[(1S)-1-(dodecylcarbamoyl)-4-guanidino-butyl]docosanamide hydrochloride]	an increase in the anti-OVA-specific IgE antibody production was not observed		may have a lower allergy inducing activity	
CCCCCCCCCCCCCCCCCCCCCC(=O)N[C@@H](CC(C)C)C(=O)NCCCCCCCCCCC [SZ142, N-[(1S)-3-methyl-1-(undecylcarbamoyl)butyl]docosanamide]	an increase in the anti-OVA-specific IgE antibody production was not observed		may have a lower allergy inducing activity	
CCCCCCCCCCCCCCCC(=O)N[C@@H](CC(C)C)C(=O)NCCCCCCCCCCCC [SZ144, N-[(1S)-1-(dodecylcarbamoyl)-3-methyl-butyl]hexadecanamide]	an increase in the anti-OVA-specific IgE antibody production was not observed		may have a lower allergy inducing activity	
CCCCCCCCCCCCCCCCCCCCCC(=O)NCC(C)(C)C(=O)NCCCCCCCCCCCC [SZ148, N-[3-(dodecylamino)-2,2-dimethyl-3-oxo-propyl]docosanamide]	an increase in the anti-OVA-specific IgE antibody production was not observed		may have a lower allergy inducing activity	
CCCCCCCCCCCCCCCC(=O)N[C@@H](CCCCN)C(=O)NCCCCCCCCCCCC.Cl [SZ153, N-[(1S)-5-amino-1-(dodecylcarbamoyl)pentyl]hexadecanamide hydrochloride]	an increase in the anti-OVA-specific IgE antibody production was not observed		may have a lower allergy inducing activity	Effective Index [2, 6]: > 1.0
CCCCCCCC/C=C/CCCCCCCC(=O)N[C@@H](CCCNC(=N)N)C(=O)NCCCCCCCCCCCC.Cl [SZ161, (E)-N-[(1S)-1-(dodecylcarbamoyl)-4-guanidino-butyl]octadeca-9-enamide hydrochloride]		lower	allergy inducing activity equivalent to or not more than that of Addavax™	
CCCCCCCCCCCCCCCCCCCCCC(=O)N[C@@H](CCCNC(=N)N)C(=O)NCCCCCCC.Cl [SZ163, N-[(1S)-4-guanidino-1-(heptylcarbamoyl)butyl]docosanamide hydrochloride]		lower	allergy inducing activity equivalent to or not more than that of Addavax™	
CCCCCCCCCCCCCCCCCCCCCC(=O)N[C@@H](CCCN)C(=O)NCCCCCCCCCCCC.Cl [SZ165, N-[(1S)-4-amino-1-(dodecylcarbamoyl)butyl]docosanamide hydrochloride]		lower	allergy inducing activity equivalent to or not more than that of Addavax™	
CCCCCCCCCCCCCCCCCCCCCC(=O)N[C@@H](CCCCNC(=N)N)C(=O)NCCCCCCCCCCCC.Cl [SZ166, N-[(1S)-1-(dodecylcarbamoyl)-5-guanidino-pentyl]docosanamide hydrochloride]		lower	allergy inducing activity equivalent to or not more than that of Addavax™	
CCCCCCCCCCCCCCCCCCCCCC(=O)N[C@@H](CCCCNC(C)=O)C(=O)NCCCCCCCCCCCC [SZ167, N-[(1S)-5-acetamide-1-(dodecylcarbamoyl)pentyl]docosanamide]		lower	allergy inducing activity equivalent to or not more than that of Addavax™	
CCCCCCCCCCCCCCCCNC(=O)N[C@@H](CCCNC(=N)N)C(=O)NCCCCCC.Cl [SZ168, (2S)-5-guanidino-2-(hexadecylcarbamoylamino)-N-hexyl-pentanamide hydrochloride]		lower	allergy inducing activity equivalent to or not more than that of Addavax™	

Source: patent publication US20180311342A1, “IMMUNOSTIMULATING AGENT” (AJINOMOTO CO., INC., priority 2017, published 2018)
